Experimental data as given in patent publication US11214594B2, “Antimicrobial peptide having synergistic antibacterial effect with antibiotics on multidrug resistant bacteria, and use thereof” (priority 2016, dated 2022).
≈ marks a conversion by molar mass, not a printed value. Like-named read-outs stand apart in the source and are kept apart here. Where a SMILES comes first, the peptide text is derived from it.

Assays:
[1] = test system: A. baumannii; assay: microbe, parasite or virus in culture; assay type: cell-based, Acinetobacter baumannii; conditions: for Antibiotic MIC, compound alone: no peptide; for MIC: Acinetobacter baumannii, read-out: Minimal inhibitory concentration MIC
Experimental: (§1) For the antibacterial activity, a minimal inhibitory concentration (MIC) of a peptide in which fungus bodies were not split in an MH medium with sufficient nutrients was measured.
(§2) Specifically, the strains described in the following [Table 2] were purchased and diluted with an MH medium such that the number of bacteria was 2×10^6 colony-forming units (CFUs), 100 μl of each of the diluted strains was aliquoted into a 96-well microtiter plate, and then 100 μl of a peptide solution diluted with the MH medium (solution diluted stepwise at 2: 1) was added to each well.

[2] = test system: MDRAB 12035; assay: microbe, parasite or virus in culture; assay type: cell-based, Acinetobacter baumannii; conditions: for Antibiotic MIC, compound alone: MDRAB 12035, no peptide
Experimental: as §1, §2

[3] = test system: S. typhimurium; assay: microbe, parasite or virus in culture; assay type: cell-based, Salmonella typhimurium; conditions: Salmonella enterica, read-out: Minimal inhibitory concentration MIC
Experimental: as §1, §2

[4] = test system: B. subtilis; assay: microbe, parasite or virus in culture; assay type: cell-based, Bacillus subtilis; conditions: Bacillus subtilis, read-out: Minimal inhibitory concentration MIC
Experimental: as §1, §2

[5] = test system: S. epidermidis; assay: microbe, parasite or virus in culture; assay type: cell-based, Staphylococcus epidermidis; conditions: Staphylococcus epidermidis, read-out: Minimal inhibitory concentration MIC
Experimental: as §1, §2

[6] = test system: E. coli; assay: MIC of antibiotic during combined treatment with antimicrobial peptide; assay type: cell-based, Escherichia coli; conditions: E. coli
Experimental: (§3) Thereafter, the MIC value of each mixed solution was determined by diluting the antibiotic solution with the MH medium, adding 50 μl of the diluted solution to each well, and performing an experiment even under a reversed condition.

[7] = test system: A. baumannii; assay: as above; assay type: cell-based, Acinetobacter baumannii; conditions: A. baumannii
Experimental: as §3

[8] = test system: E. coli; assay: microbe, parasite or virus in culture; assay type: cell-based, Escherichia coli
Experimental: as §1, §2

[9] = test system: MDREC 1229; assay: microbe, parasite or virus in culture; assay type: cell-based, Escherichia coli; conditions: for MIC: Escherichia coli, read-out: Minimal inhibitory concentration MIC; for Antibiotic MIC, compound alone: no peptide
Experimental: as §1, §2

[10] = test system: P. aeruginosa; assay: microbe, parasite or virus in culture; assay type: cell-based, Pseudomonas aeruginosa; conditions: Pseudomonas aeruginosa, read-out: Minimal inhibitory concentration MIC
Experimental: as §1, §2

[11] = test system: S. aureus; assay: microbe, parasite or virus in culture; assay type: cell-based, Staphylococcus aureus; conditions: Staphylococcus aureus, read-out: Minimal inhibitory concentration MIC
Experimental: as §1, §2

[12] = test system: A. baumannii; assay: MIC of antimicrobial peptide during combined treatment with antibiotic; assay type: cell-based, Acinetobacter baumannii
Experimental: Specifically, the strains described in [Table 2] were prepared and diluted with an MH medium such that the number of bacteria was 2×10^6 colony-forming units (CFUs) per 1 ml, 100 μl of the diluted strains was each aliquoted into a 96-well microtiter plate, and then 50 μl of a peptide solution diluted with the MH medium from the MIC value (solution diluted stepwise at 2: 1) was added to each well. Thereafter, the MIC value of each mixed solution was determined by diluting the antibiotic solution with the MH medium, adding 50 μl of the diluted solution to each well, and performing an experiment even under a reversed condition.

[13] = with PapMA-1 at 16 μg/ml (1/4 of peptide MIC)
[14] = with PapMA-2 at 16 μg/ml (1/4 of peptide MIC)
[15] = with Papiliocin 1 μg/ml (Conc./MIC 1/8)
[16] = with Papiliocin 2 μg/ml (Conc./MIC 1/4)
[17] = with Papiliocin 4 μg/ml (Conc./MIC 1/2)
[18] = with Papiliocin 8 μg/ml (Conc./MIC 1)
[19] = E. coli, compound alone (no peptide)

Antibiotic MIC, compound alone ([1]; A. baumannii) | Antibiotic MIC, compound alone [2] | MIC ([3]; S. typhimurium, agent alone) | MIC ([4]; B. subtilis, agent alone) | MIC ([5]; S. epidermidis, agent alone) | MIC of antibiotic in mixture as fraction of the MIC of the antibiotic alone ([6]; with PapMA-1 at 16 μg/ml) | MIC value of antibiotic mixed with peptide [6, 13] | MIC value of antibiotic mixed with peptide [6, 14] | MIC of antibiotic in mixture as fraction of the MIC of the antibiotic alone ([6]; with PapMA-7 at 16 μg/ml) | MIC Concentration of antibiotic [6, 15] | MIC Concentration of antibiotic [6, 16] | MIC Concentration of antibiotic [6, 17] | MIC Concentration of antibiotic [6, 18] | MIC of antibiotic administered in combination with peptide ([7]; with PapMA-1 at 8 μg/ml) | MIC of antibiotic in combination as fraction of the MIC of the antibiotic alone ([7]; with PapMA-1 at 8 μg/ml) | MIC Concentration of antibiotic [7, 15] | MIC Concentration of antibiotic [7, 16] | MIC Concentration of antibiotic [7, 17] | MIC Concentration of antibiotic [7, 18] | Structure (SMILES) | Antibiotic MIC, compound alone ([9]; MDREC 1229) | also measured
32 µg/mL | 32 µg/mL | 64 µg/mL (≈ 87.2 µM) | 0.25 µg/mL (≈ 0.341 µM) | 1 µg/mL (≈ 1.36 µM) | 1/64 | 2 µg/mL | 0.5 µg/mL | 1/512 | 64 µg/mL | 64 µg/mL | 64 µg/mL | 0 µg/mL | 0.5 µg/mL | 1/64 | 32 µg/mL | 16 µg/mL | 16 µg/mL | 0 µg/mL | CC[C@H]1OC(=O)[C@H](C)[C@@H](O[C@H]2C[C@@](C)(OC)[C@@H](O)[C@H](C)O2)[C@H](C)[C@@H](O[C@@H]2O[C@H](C)C[C@H](N(C)C)[C@H]2O)[C@](C)(O)C[C@@H](C)C(=O)[C@H](C)[C@@H](O)[C@]1(C)O [Erythromycin, erythromycin, reference compound] |  | MIC ([1]; A. baumannii, agent alone): 32 µg/mL (≈ 43.6 µM)
 |  |  |  |  |  |  |  |  |  |  |  |  |  |  |  |  |  |  | CC[C@H](C)[C@H](NC(=O)[C@H](CCCCN)NC(=O)[C@H](Cc1c[nH]c2ccccc12)NC(=O)[C@@H](N)CCCNC(=N)N)C(=O)N[C@@H](Cc1ccccc1)C(=O)N[C@@H](CCCCN)C(=O)N[C@@H](CCCCN)C(=O)N[C@H](C(=O)N1CCC[C@H]1C(=O)N[C@@H](CCCCN)C(=O)N[C@@H](CC(C)C)C(=O)N[C@@H](CC(C)C)C(=O)N[C@@H](Cc1c[nH]cn1)C(=O)N[C@@H](CCC(=O)O)C(=O)N[C@@H](Cc1ccccc1)C(=O)N[C@@H](CCCCN)C(=O)N[C@@H](CCCCN)C(=O)N[C@@H](Cc1ccccc1)C(N)=O)[C@@H](C)CC [Pap-MA-12] (H-RWKIFKKIPKLLHEFKKF-NH2; N-terminus assumed) |  | Peptide MIC, peptide alone [1]: 8 µg/mL; Peptide MIC during treatment with antibiotic ([12]; erythromycin 4 μg/ml (Conc./MIC 1/8)): 4 µg/mL; Peptide MIC during treatment with antibiotic ([12]; erythromycin 8 μg/ml (Conc./MIC 1/4)): 2 µg/mL; Peptide MIC during treatment with antibiotic ([12]; erythromycin 16 μg/ml (Conc./MIC 1/2)): 1 µg/mL; Peptide MIC during treatment with antibiotic ([12]; erythromycin 32 μg/ml (Conc./MIC 1)): 0 µg/mL; Peptide MIC during treatment with antibiotic ([12]; linezolid 32 μg/ml (Conc./MIC 1/8)): 2 µg/mL; Peptide MIC during treatment with antibiotic ([12]; linezolid 64 μg/ml (Conc./MIC 1/4)): 2 µg/mL; Peptide MIC during treatment with antibiotic ([12]; linezolid […] (Conc./MIC 1)): 0 µg/mL; Peptide MIC during treatment with antibiotic ([12]; linezolid […] (Conc./MIC 1/2)): 1 µg/mL; Peptide MIC during treatment with antibiotic ([12]; vancomycin 512 μg/ml (Conc./MIC 1/2)): 0.25 µg/mL; Peptide MIC during treatment with antibiotic ([12]; vancomycin 1024 μg/ml (Conc./MIC 1)): 0 µg/mL; Peptide MIC during treatment with antibiotic ([12]; vancomycin […] (Conc./MIC 1/4)): 0.25 µg/mL; Peptide MIC during treatment with antibiotic ([12]; vancomycin […] (Conc./MIC 1/8)): 2 µg/mL
256 µg/mL | 512 µg/mL | 256 µg/mL (≈ 759 µM) | 1 µg/mL (≈ 2.96 µM) | 1 µg/mL (≈ 2.96 µM) | 1/16 | 16 µg/mL | 8 µg/mL | 1/256 | 128 µg/mL | 128 µg/mL | 128 µg/mL | 0 µg/mL | 8 µg/mL | 1/32 | 128 µg/mL | 64 µg/mL | 64 µg/mL | 0 µg/mL | CC(=O)NC[C@H]1CN(c2ccc(N3CCOCC3)c(F)c2)C(=O)O1 [Linezolid, linezolid, reference compound] | 512 µg/mL | Antibiotic MIC, Linezolid [8, 19]: 256 µg/mL; MIC ([9]; MDREC 1229, agent alone): 512 µg/mL (≈ 1520 µM); MIC ([10]; P. aeruginosa, agent alone): > 1020 µg/mL; MIC of antibiotic in mixture as fraction of the MIC of the antibiotic alone ([6]; with PapMA-2 at 16 μg/ml): 1/32; MIC value of antibiotic mixed with peptide ([6]; with PapMA-7 at 16 μg/ml (1/2 of peptide MIC)): 1 µg/mL; MIC of antibiotic administered in combination with peptide ([7]; with PapMA-7 at 8 μg/ml): 1 µg/mL; MIC of antibiotic in combination as fraction of the MIC of the antibiotic alone ([7]; with PapMA-7 at 8 μg/ml): 1/256

Structure (SMILES) | Antibiotic MIC, compound alone ([1]; A. baumannii) | Antibiotic MIC, compound alone [2] | MIC ([3]; S. typhimurium, agent alone) | MIC ([4]; B. subtilis, agent alone) | MIC ([5]; S. epidermidis, agent alone) | MIC of antibiotic in mixture as fraction of the MIC of the antibiotic alone ([6]; with PapMA-1 at 16 μg/ml) | MIC value of antibiotic mixed with peptide [6, 13] | MIC value of antibiotic mixed with peptide [6, 14] | MIC of antibiotic in mixture as fraction of the MIC of the antibiotic alone ([6]; with PapMA-7 at 16 μg/ml) | MIC Concentration of antibiotic [6, 15] | MIC Concentration of antibiotic [6, 16] | MIC Concentration of antibiotic [6, 17] | MIC Concentration of antibiotic [6, 18] | MIC of antibiotic administered in combination with peptide ([7]; with PapMA-1 at 8 μg/ml) | MIC of antibiotic in combination as fraction of the MIC of the antibiotic alone ([7]; with PapMA-1 at 8 μg/ml) | MIC Concentration of antibiotic [7, 15] | MIC Concentration of antibiotic [7, 16] | MIC Concentration of antibiotic [7, 17] | MIC Concentration of antibiotic [7, 18] | Antibiotic MIC, compound alone ([9]; MDREC 1229) | also measured
CN[C@H](CC(C)C)C(=O)N[C@H]1C(=O)N[C@@H](CC(N)=O)C(=O)N[C@H]2C(=O)N[C@H]3C(=O)N[C@H](C(=O)N[C@H](C(=O)O)c4cc(O)cc(O)c4-c4cc3ccc4O)[C@H](O)c3ccc(c(Cl)c3)Oc3cc2cc(c3O[C@@H]2O[C@H](CO)[C@@H](O)[C@H](O)[C@H]2O[C@H]2C[C@](C)(N)[C@H](O)[C@H](C)O2)Oc2ccc(cc2Cl)[C@H]1O [Vancomycin, vancomycin, reference compound] | 1024 µg/mL | >1024 µg/mL |  |  |  |  |  |  |  | 512 µg/mL | 256 µg/mL | 256 µg/mL | 0 µg/mL |  |  | 512 µg/mL | 256 µg/mL | 256 µg/mL | 0 µg/mL | >1024 µg/mL | Antibiotic MIC, Vancomycin [8, 19]: 1024 µg/mL; MIC ([8]; Escherichia coli, 16 h, read-out: Minimal inhibitory concentration MIC): 1020 µg/mL (≈ 707 µM); MIC [9]: > 1020 µg/mL; MIC [10]: > 1020 µg/mL; MIC [1]: 1020 µg/mL (≈ 707 µM); MIC ([2]; Acinetobacter baumannii, read-out: Minimal inhibitory concentration MIC): > 1020 µg/mL; MIC ([3]; TYPHIMURIUM): 512 µg/mL (≈ 353 µM); MIC [4]: 1 µg/mL (≈ 0.69 µM); MIC [5]: 1 µg/mL (≈ 0.69 µM); MIC [11]: 1 µg/mL (≈ 0.69 µM); MIC of antibiotic administered in combination with peptide ([7]; with PapMA-7 at 8 μg/ml): 2 µg/mL; MIC of antibiotic in combination as fraction of the MIC of the antibiotic alone ([7]; with PapMA-7 at 8 μg/ml): 1/512
